The source of these data is US20260053861A1, “CELL COMPOSITIONS AND METHODS OF USING THE SAME” (THE REGENTS OF THE UNIVERSITY OF CALIFORNIA, priority 2022, published 2026).

Counter-ions that a name gives are not always drawn.

The subject of the first assay is hPSC-SCs.
Conditions: not given
As to `COc1ccc2c(c1)[C@]13CCCC[C@@H]1[C@H](C2)N(C)CC3`, the z.score.t was 1.28.

`COc1cc2c(cc1OC)C(C)NCC2.Cl` (centres unmarked) gave a z.score.t of 0.3024.

In the case of `CN1CCc2cccc3c2[C@H]1Cc1ccc(O)c(O)c1-3.CN1CCc2cccc3c2[C@H]1Cc1ccc(O)c(O)c1-3.Cl.Cl.O`, the z.score.t is −1.904. Consider `CN(N=O)C(=O)N[C@H]1C(O)O[C@H](CO)[C@@H](O)[C@@H]1O` (mixture of isomers) [Streptozotocin], for which the z.score.t is on record as 0.03421. `Cl.NCC(O)c1ccc(O)cc1` (racemic) [(+, −)-Octopamine hydrochloride] displayed a z.score.t of 0.6574. Same read-out and setting: in the case of `CNCC(O)c1ccc(O)cc1` (racemic) [(+, −)-Synephrine] it was −0.2329; in that of `O=C(O)C1CCCNC1` (racemic) [(ñ)-Nipecotic acid], −0.7376. On the same count and under the same terms, in the case of `NCC(CC(=O)O)c1ccc(Cl)cc1` (racemic) [Baclofen (R,S)] it was 1.088. `Nc1c2c(nc3ccccc13)CCCC2O.O=C(O)/C=C\C(=O)O` (racemic) [Hydroxytacrine maleate (R,S)] registered a z.score.t of 0.713. The same measure, in the same setting: in the case of `COc1ccc(CC2c3cc(OC)c(OC)cc3CCN2C)cc1OC` (racemic) [Laudanosine (R,S)] it was −0.3319. `CC(=O)NC1CCSC1=O` (racemic) [N-Acetyl-DL-homocysteine Thiolactone] showed a z.score.t of 0.0116. As for `CN1CCC2(C)c3cc(O)ccc3N(C)C12.O=C(O)/C=C/C(=O)O` (single isomer, unassigned; (-)) [(−)-Eseroline fumarate salt], the z.score.t is reported as −1.336. Same read-out and setting: in the case of `CC(=C(CCO)SSCC1CCCO1)N(C=O)Cc1cnc(C)nc1N` (stereo in doubt) [Fursultiamine Hydrochloride] it was 1.483. As for `C[C@]12CC[C@@H](O)C[C@H]1CC[C@@H]1[C@@H]2CC[C@]2(C)C(=O)CC[C@@H]12` [3-alpha-Hydroxy-5-beta-androstan-17-one], the z.score.t was −0.1014.

With `CN1C2CC(=O)CC1C(O)C2` (centres unmarked) [6-Hydroxytropinone], the z.score.t is on record as −0.3867. Turning to `COc1ccc2c(c1OC)CN1CCc3cc4c(cc3C1C2)OCO4` (centres unmarked) [(d,l)-Tetrahydroberberine], the z.score.t was 2.041. Same read-out and setting: in the case of `CCN1C[C@]2(COC)[C@H](O)C[C@H](OC)[C@@]34[C@@H]5C[C@@]6(O)[C@H](OC(=O)c7ccccc7)[C@@H]5[C@@](OC(C)=O)([C@@H]([C@H](OC)[C@H]23)[C@@H]14)[C@@H](O)[C@@H]6OC` [Aconitine] it was −0.2486; in that of `Nc1ncnc2c1ncn2[C@@H]1O[C@H](COP(=O)(O)O)[C@@H](O)[C@H]1O.O` [Adenosine 5′-monophosphate monohydrate], 1.049. On the same count and under the same terms, the figure for `C[C@]12CCC(=O)C=C1CC[C@@H]1[C@@H]2C(=O)C[C@]2(C)C(=O)CC[C@@H]12` [Adrenosterone] is 1.101; for `CC[C@H]1[C@@H]2C[C@H]3[C@@H]4N(C)c5ccccc5[C@]45C[C@@H]([C@H]2[C@H]5O)N3[C@@H]1O` [Ajmaline] it is 0.1767; for `CCCSc1ccc2nc(NC(=O)OC)[nH]c2c1` [Albendazole] it is −1.079. In the case of `CCC(=O)OCC(=O)[C@@]1(OC(=O)CC)[C@H](C)C[C@H]2[C@H]3[C@H]([C@@H](O)C[C@@]21C)[C@@]1(C)C=CC(=O)C=C1C[C@H]3Cl` [Alclometasone dipropionate], the z.score.t was determined as 1.456.

Consider `C=CC[N@@+]12CC[C@@]34c5ccccc5N5/C=C6/[C@H]7C[C@H]8[C@@]9(CC[N@@+]8(CC=C)C/C7=C/CO)c7ccccc7N(/C=C(/[C@@H](C[C@@H]31)/C(=C\CO)C2)[C@H]54)[C@@H]69.[Cl-].[Cl-]` [Alcuronium chloride], for which the z.score.t is given as −0.8925. Same read-out and setting: in the case of `CC(=O)OCC(=O)[C@H]1CC[C@H]2[C@@H]3CC[C@H]4C[C@H](O)CC[C@]4(C)[C@H]3C(=O)C[C@]12C` [Alfadolone acetate] it was 0.3651.

The assay is the same for the next values; noted with them: HTS viability of hPSC-SCs in the presence of 30 mM glucose; Prestwick library; Table S4.
In the case of `Cc1ccc(Cl)c(Nc2ccccc2C(=O)O)c1Cl`, the z.score.t is recorded as −1.427.

Take `CC(C)NCC(O)c1cc(O)cc(O)c1.CC(C)NCC(O)c1cc(O)cc(O)c1.O=S(=O)(O)O` (centres unmarked): the z.score.t is listed as 0.4451. Same read-out and setting: in the case of `O=C(O)Cc1cc(I)c(Oc2ccc(O)c(I)c2)c(I)c1` it was 0.4486.

On to `CN(Cc1cnc2nc(N)nc(N)c2n1)c1ccc(C(=O)N[C@@H](CCC(=O)O)C(=O)O)cc1` (racemic) [Amethopterin (R,S)], for which the z.score.t worked out at 0.3845.

As to `CC(=O)NC(CC(=O)O)C(=O)O` (racemic) [Aspartic acid, N-acetyl (R,S)], the z.score.t is 0.006455. The same measure, in the same setting: in the case of `O.Oc1cc(O)c2c(c1)OC(c1ccc(O)c(O)c1)C(O)C2` (racemic) [Catechin-(+, −) hydrate] it was 0.2361.

Turning to `OCC(O)CN1CCN(c2ccccc2)CC1` (racemic) [Dropropizine (R,S)], the z.score.t is 0.7162. The same measure, in the same setting: the figure for `COCCc1ccc(OCC(O)CNC(C)C)cc1.COCCc1ccc(OCC(O)CNC(C)C)cc1.O=C(O)C(O)C(O)C(=O)O` (racemic) [Metoprolol-(+, −) (+)-tartrate salt] is 1.223; for `CC(C)NCC(O)c1ccc(O)c(O)c1.Cl` (single isomer, unassigned; (-)) [(−)-Isoproterenol hydrochloride] it is −0.1043.

For the molecule `CC(=O)NC1[C@@H](O)OC(CO)[C@@H](O)[C@H]1O[C@H](C)C(=O)O` (stereo in doubt) [Muramic acid, N-acetyl], the z.score.t is recorded as 1.616. As to `Nc1ccccc1S(N)(=O)=O` [2-Aminobenzenesulfonamide], the z.score.t is 1.43.

In the case of `Clc1cnccn1` [2-Chloropyrazine], the z.score.t was found to be 0.2112. `CC(=O)Nc1cc2ccccc2oc1=O` [3-Acetamidocoumarin]: the z.score.t is −1.551. The same measure, in the same setting: the figure for `CC(=O)c1cc2ccccc2oc1=O` [3-Acetylcoumarin] is −0.7757. The same measure, in the same setting: in the case of `c1coc(CNc2ncnc3nc[nH]c23)c1` [6-Furfurylaminopurine] it was −0.7183; in that of `CC(C)(C)NC[C@@H](O)COc1cccc2c1CCCC2=O.Cl` [(+) -Levobunolol hydrochloride], 1.281. As for `CC(C)NC[C@@H](O)c1ccc(O)c(O)c1.O=C(O)C(O)C(O)C(=O)O` [(+)-Isoproterenol (+)-bitartrate salt], the z.score.t is on record as 0.1019. `COc1ccc2cc([C@@H](C)C(=O)[O-])ccc2c1.[Na+]` [(R) -Naproxen sodium salt]: the z.score.t is −0.3895. Same read-out and setting: the figure for `CC(C)NC[C@@H](O)COc1ccc(CC(N)=O)cc1` [(R)-(+)-Atenolol] is −0.9395. In the case of `CC(C)NC[C@@H](O)COc1cccc2ccccc12.Cl` [(R)-Propranolol hydrochloride], the z.score.t was −0.04682. In the case of `N[C@H]1CONC1=O` [(S)-(−)-Cycloserine], the z.score.t was −0.3729.

Take `CC(C)(C)NC[C@H](O)COc1cccc2c1CCCC2=O.Cl` [(−) -Levobunolol hydrochloride]: the z.score.t turned out to be 0.8283.

For `C=C[C@H]1CN2CC[C@H]1C[C@H]2[C@H](O)c1ccnc2ccccc12` [(−)-Cinchonidine], the z.score.t was 1.595.

In the case of `COc1ccc(-c2cc(=O)c3c(O)cc(O)cc3o2)cc1` [Acacetin], the z.score.t is recorded as −0.03362. With `CCCC(=O)Nc1ccc(OCC(O)CNC(C)C)c(C(C)=O)c1` (centres unmarked) [Acebutolol hydrochloride], the z.score.t is on record as 0.3206. For the molecule `O=C(O)COC(=O)Cc1ccccc1Nc1c(Cl)cccc1Cl` [Aceclofenac], the z.score.t was 0.08508. For the molecule `COc1ccc2c(c1)c(CC(=O)OCC(=O)O)c(C)n2C(=O)c1ccc(Cl)cc1` [Acemetacin], the z.score.t is −1.873.

For `CC(=O)CC(c1ccc([N+](=O)[O-])cc1)c1c(O)c2ccccc2oc1=O` (centres unmarked) [Acenocoumarol], the z.score.t was −0.2425.

As for `CC(=O)Nc1ccc(O)cc1` [Acetaminophen], the z.score.t is −0.3023. Turning to `CC(=O)Nc1nnc(S(N)(=O)=O)s1` [Acetazolamide], the z.score.t was found to be 0.8639. Still for that read-out and setting: the figure for `CC(=O)c1ccc(S(=O)(=O)NC(=O)NC2CCCCC2)cc1` [Acetohexamide] is 0.5856; for `CC(=O)c1ccc2c(c1)N(CCCN(C)C)c1ccccc1S2.O=C(O)/C=C\C(=O)O` [Acetopromazine maleate salt] it is 0.1979. On the same count and under the same terms, in the case of `CC(=O)Oc1ccccc1C(=O)Oc1ccccc1C(=O)O` [Acetylsalicylsalicylic acid] it was 0.3922; in that of `Nc1nc2c(ncn2COCCO)c(=O)[nH]1` [Acyclovir], 0.2916. `NC12CC3CC(CC(C3)C1)C2.NC12CC3CC(CC(C3)C1)C2.O=C(O)/C=C/C(=O)O` [Adamantamine fumarate]: the z.score.t is on record as −0.4942. On the same count and under the same terms, in the case of `CCN(CC)CCOC(=O)C(c1ccccc1)c1ccccc1` [Adiphenine hydrochloride] it was −0.765; in that of `COC(=O)C1=CO[C@@H](C)[C@H]2CN3CCc4c([nH]c5ccccc45)[C@@H]3C[C@H]12.Cl` [Ajmalicine hydrochloride], −0.6111. For the molecule `CCCCC(CC)CNC(=N)NC(=N)NCCCCCCNC(=N)NC(=N)NCC(CC)CCCC` (centres unmarked) [Alexidine dihydrochloride], the z.score.t is reported as −1.733. On the same count and under the same terms, the figure for `COc1cc2nc(N(C)CCCNC(=O)C3CCCO3)nc(N)c2cc1OC` (centres unmarked) [Alfuzosin hydrochloride] is −1.061; for `C=CCN1CCCC1CNC(=O)c1cc2[nH]nnc2cc1OC` (centres unmarked) [Alizapride HCl] it is 0.5437.

For the molecule `NC(=O)NC1NC(=O)NC1=O` (centres unmarked) [Allantoin], the z.score.t worked out at 0.8036. On the same count and under the same terms, the figure for `C=CCc1ccccc1OCC(O)CNC(C)C` (centres unmarked) [Alprenolol hydrochloride] is −0.2572; for `CCCCC[C@H](O)/C=C/[C@H]1[C@H](O)CC(=O)[C@@H]1CCCCCCC(=O)O` [Alprostadil] it is 0.3375; for `C=CCSCC1Nc2cc(Cl)c(S(N)(=O)=O)cc2S(=O)(=O)N1` (centres unmarked) [Althiazide] it is −0.1239.
